The experiment addresses human MRGPRD (Homo sapiens, UniProt Q8TDS7). The experiment can be described thus: MRGPRD antagonist activity, IP-One HTRF assay in CHO cells stably expressing human MRGPRD (versus 100 μM β-Alanine agonist). The class given is cell-based. The gist of the method: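 CHO cells stably expressing human MRGPRD, plated overnight at 37 °C, were treated with antagonist plus agonist in Tris-HCl/NaCl/LiCl buffer pH 8, incubated 1 h at 37 °C then 1 h at room temperature. IP-1 accumulation read by HTRF; IC50 and percent antagonism of maximum efficacy averaged, SEM reported.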
On the technique in general: In TR-FRET formats the signal depends on donor and acceptor labels being close together.

Chain of human MRGPRD (Q8TDS7 whole entry): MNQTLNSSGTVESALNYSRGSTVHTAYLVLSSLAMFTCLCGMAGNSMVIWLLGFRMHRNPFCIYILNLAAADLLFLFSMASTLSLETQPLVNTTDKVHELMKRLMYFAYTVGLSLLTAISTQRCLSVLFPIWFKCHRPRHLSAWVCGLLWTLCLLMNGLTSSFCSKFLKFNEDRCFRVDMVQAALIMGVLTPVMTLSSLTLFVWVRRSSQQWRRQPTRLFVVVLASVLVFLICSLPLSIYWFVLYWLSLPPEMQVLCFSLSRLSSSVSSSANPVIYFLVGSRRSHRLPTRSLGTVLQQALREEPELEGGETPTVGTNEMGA

Turning to `CCn1cc(CNC(=O)c2nnn(-c3ccc(-c4cccc(CC#N)c4)cc3)c2C2CC2)cn1` [Compound 16-5], the half-maximal inhibitory concentration (IC50) is 0.1 to 0.5 µM. For `Cc1cc(NC(=O)c2nnn(-c3ccc(-c4c(C)nn(CC(F)(F)F)c4C)cc3)c2C2CC2)ccn1` [Compound 20-1, 5-cyclopropyl-1-(4-(3,5-dimethyl-1-(2,2,2-trifluoroethyl)-1H-pyrazol-4-yl)phenyl)-N-(2-methylpyridin-4-yl)-1H-1,2,3-triazole-4-carboxamide] the value was less than 0.1 µM; for `CC(C)(C)c1c(C(=O)Nc2ccncc2)nnn1-c1ccc(-c2ccccc2)cc1` [Compound 4-12], 1 to 3 µM. For `CC(=O)c1ccc(-c2cccc(-n3nnc(C(=O)Nc4ccncc4)c3C3CC3)c2)c(F)c1` [Compound 7-229] the value was 0.1 to 0.5 µM; for `Cc1ccc(C2(NC(=O)c3nnn(-c4ccc(-c5ccc(C#N)c(F)c5)cc4)c3C3CC3)CC2)cn1` [Compound 9-7], 0.1 to 0.5 µM. For `O=C(Nc1ccncc1)c1nnn(-c2cccc(-c3ccc(O)cc3)c2)c1C1CC1` [Compound 7-277] the value was 0.5 to 1 µM.

Take `O=C(Nc1ccncc1)c1nnn(-c2ccc(C3=CCOCC3)cc2)c1C1CC1` [Compound 7-114]: the IC50 lay within 0.5 to 1 µM. `O=C(Nc1ccncc1)c1nnn(-c2ccc(-c3ccc4[nH]ccc4c3)cc2)c1C1CC1` [Compound 7-196] gave an IC50 of 1 to 3 µM. On to `Cc1cc(NC(=O)c2nnn(C3CCC(c4c(C)nn(C)c4C)CC3)c2C2CC2)ccn1` (stereo not drawn) [Compound 13-1, 5-cyclopropyl-N-(2-methylpyridin-4-yl)-1-(4-(1,3,5-trimethyl-1H-pyrazol-4-yl)cyclohexyl)-1H-1,2,3-triazole-4-carboxamide], for which the IC50 is 1 to 3 µM. The molecule `Cn1ncc2c1CCC2NC(=O)c1nnn(-c2ccc(-c3ccccc3)cc2)c1C1CC1` (stereo not drawn) [Compound 14-70] returned an IC50 of 1 to 3 µM. To `Cc1cn(C)nc1-c1ccc(-n2nnc(C(=O)Nc3ccncc3)c2C2CC2)cc1` [Compound 7-110] belongs 0.1 to 0.5 µM; to `O=C(Nc1ccncc1)c1nnn(C2CCc3ccccc3C2)c1C1CC1` (stereo not drawn) [Compound 4-9], 1 to 3 µM; to `CCn1nc(C)c(-c2ccc(-n3nnc(C(=O)N4Cc5cnn(C)c5C4)c3C3CC3)cc2)c1C` [Compound 9-32], 1 to 3 µM. For the molecule `CC(=O)c1ccc(-c2cccc(-n3nnc(C(=O)Nc4ccncc4)c3C3CC3)c2)cc1` [Compound 7-274], the concentration for half-maximal inhibition (IC50) lay within 0.5 to 1 µM. To `Cc1c(-c2ccc(-n3nnc(C(=O)Nc4ccncc4)c3C3CC3)cc2)cnn1C` [Compound 7-50] belongs 0.1 to 0.5 µM. The molecule `Cc1cc(NC(=O)c2nnn(-c3ccc(-c4ccccc4)cc3)c2C(C)C)ccn1` [Compound 17-31] yielded an IC50 of 1 to 3 µM.

For the molecule `O=C(Nc1ccncc1)c1nnn(-c2ccc(-c3cc(C(F)(F)F)[nH]n3)cc2)c1C1CC1` [Compound 7-183], the IC50 was in the range of 1 to 3 µM. As for `O=C(Nc1ccncc1)c1nnn(-c2ccc(C3CCCC3)cc2)c1C1CC1` [Compound 2-11], the IC50 was 1 to 3 µM. To `O=C(Nc1ccncc1)c1nnn(-c2ccc(-c3ccc(OC(F)(F)F)cc3)cc2)c1C1CC1` [Compound 7-195] belongs 1 to 3 µM; to `Cc1cc(NC(=O)c2nnn(-c3ccc(-c4c(C)nn(C5CCC5)c4C)cc3)c2C2CC2)ccn1` [Compound 8-2, 1-(4-(1-cyclobutyl-3,5-dimethyl-1H-pyrazol-4-yl)phenyl)-5-cyclopropyl-N-(2-methylpyridin-4-yl)-1H-1,2,3-triazole-4-carboxamide], less than 0.1 µM.

In the case of `COc1cc(NC(=O)c2nnn(-c3ccc(-c4ccccc4)cc3)c2C2CC2)ccn1` [Compound 14-50], the IC50 fell in the range of 1 to 3 µM.

On to `COc1cc(-c2c(C)nn(C)c2C)ccc1-n1nnc(C(=O)Nc2ccncc2)c1C1CC1` [Compound 7-226], for which the IC50 fell in the range of 0.1 to 0.5 µM. To `Cc1cc(NC(=O)c2nnn(-c3ccc(-c4ccc(CC#N)nc4)cc3)c2C2CC2)ccn1` [Compound 15-24] belongs 0.1 to 0.5 µM. For the molecule `Cc1cc(-n2nnc(C(=O)Nc3ccncc3)c2C2CC2)ccc1-c1cn(C)nc1C` [Compound 7-246], the IC50 lay in the range of 0.5 to 1 µM.

The term IC50 denotes the concentration that gives 50% inhibition.
